Converted amounts (≈) assume the structure as drawn.
Experiment: Test on the solubility in a simulated body fluid
Type: physicochemical
Conditions: for Compound concentration: Bupivacaine / Compound concentration: DBTA / Compound concentration: DTTA / Compound concentration: Ropivacaine / Compound concentration: naphthol phosphate / solubility / Compound concentration: Pamoic acid: 0.01 M PBS pH 7.4, 37° C.
Method: Test on the Solubility in a Simulated Body Fluid
The concentration of the drug dissolved in the PBS buffered solution was determined with an HPLC-a method.

| SMILES | Compound concentration: Bupivacaine (5 min) | Compound concentration: Bupivacaine (15 min) | Compound concentration: Bupivacaine (30 min) | Compound concentration: Bupivacaine (1 h) | Compound concentration: Bupivacaine (2 h) | Compound concentration: Bupivacaine (6 h) | Compound concentration: Bupivacaine (24 h) | Compound concentration: DTTA (5 min) | Compound concentration: DTTA (15 min) | Compound concentration: DTTA (30 min) | Compound concentration: DTTA (1 h) | Compound concentration: DTTA (2 h) | Compound concentration: DTTA (6 h) | Compound concentration: DTTA (24 h) | Compound concentration: Ropivacaine (5 min) | Compound concentration: Ropivacaine (15 min) | Compound concentration: Ropivacaine (30 min) | Compound concentration: Ropivacaine (1 h) | Compound concentration: Ropivacaine (2 h) | Compound concentration: Ropivacaine (6 h) | other results |
| --- | --- | --- | --- | --- | --- | --- | --- | --- | --- | --- | --- | --- | --- | --- | --- | --- | --- | --- | --- | --- | --- |
| CCCCN1CCCCC1C(=O)Nc1c(C)cccc1C (stereo not shown) [Bupivacaine free base, reference compound] | – | – | – | – | – | – | – | – | – | – | – | – | – | – | – | – | – | – | – | – | solubility at 24 h (phosphate buffered saline (simulated body fluid), 37 °C, aqueous buffer, thermodynamic from solid, simulated body fluid, 0.01 M PBS at pH 7.4, read-out: Saturated solubility): 1450 µM (≈ 418 µg/mL) |
| CCCCN1CCCCC1C(=O)Nc1c(C)cccc1C.O=C(OC(C(=O)O)C(OC(=O)c1ccccc1)C(=O)O)c1ccccc1 (stereo not shown) [Preparation Example 1, mono(bupivacaine) dibenzoyl tartarate] | 4884.6 µM | 6987.2 µM | 7755.2 µM | 8196 µM | 7911.7 µM | 7006.1 µM | 5767.9 µM | – | – | – | – | – | – | – | – | – | – | – | – | – | Compound concentration: DBTA (5 min): 4992 µM; Compound concentration: DBTA (15 min): 7107.7 µM; Compound concentration: DBTA (30 min): 7866.6 µM; Compound concentration: DBTA (1 h): 8284.6 µM; Compound concentration: DBTA (2 h): 8015.5 µM; Compound concentration: DBTA (6 h): 7590.5 µM; Compound concentration: DBTA (24 h): 7303.7 µM |
| CCCCN1CCCCC1C(=O)Nc1c(C)cccc1C.CCCCN1CCCCC1C(=O)Nc1c(C)cccc1C.O=C(OC(C(=O)O)C(OC(=O)c1ccccc1)C(=O)O)c1ccccc1 (stereo not shown) [Preparation Example 2, bis(bupivacaine) dibenzoyl tartarate] | 819 µM | 1593.7 µM | 2133.2 µM | 2848.7 µM | 3565.4 µM | 6577 µM | 6389.6 µM | – | – | – | – | – | – | – | – | – | – | – | – | – | Compound concentration: DBTA (5 min): 769.6 µM; Compound concentration: DBTA (15 min): 1550.4 µM; Compound concentration: DBTA (30 min): 2183.8 µM; Compound concentration: DBTA (1 h): 3035.9 µM; Compound concentration: DBTA (2 h): 3953.3 µM; Compound concentration: DBTA (6 h): 6336.3 µM; Compound concentration: DBTA (24 h): 6122.7 µM |
| CCCCN1CCCCC1C(=O)Nc1c(C)cccc1C.Cc1ccc(C(=O)OC(C(=O)O)C(OC(=O)c2ccc(C)cc2)C(=O)O)cc1 (stereo not shown) [Preparation Example 3, mono(bupivacaine) di-p-toluoyl tartarate] | 7947.6 µM | 7862.6 µM | 7662.2 µM | 7519 µM | 7719.3 µM | 7883.2 µM | 7917.8 µM | 7316.3 µM | 7244.6 µM | 7012.2 µM | 6900.6 µM | 7048.1 µM | 7211.7 µM | 7249 µM | – | – | – | – | – | – | – |
| CCCCN1CCCCC1C(=O)Nc1c(C)cccc1C.CCCCN1CCCCC1C(=O)Nc1c(C)cccc1C.Cc1ccc(C(=O)OC(C(=O)O)C(OC(=O)c2ccc(C)cc2)C(=O)O)cc1 (stereo not shown) [Preparation Example 4, bis(bupivacaine) di-p-toluoyl tartarate] | 11389.4 µM | 12009.1 µM | 11426.9 µM | 11256.7 µM | 11278.1 µM | 11851.8 µM | 11693.3 µM | 5161 µM | 5399.5 µM | 5135 µM | 5084.8 µM | 5068.3 µM | 5312 µM | 5219.7 µM | – | – | – | – | – | – | – |
| CCCN1CCCC[C@H]1C(=O)Nc1c(C)cccc1C.Cc1ccc(C(=O)OC(C(=O)O)C(OC(=O)c2ccc(C)cc2)C(=O)O)cc1 (stereo not shown) [Preparation Example 5, mono(ropivacaine) di-p-toluoyl tartarate] | – | – | – | – | – | – | – | 6676.8 µM | 6612.8 µM | 6704 µM | 6752.1 µM | 6988 µM | 6971.8 µM | 7073.8 µM | 7268.7 µM | 7215.5 µM | 7287.2 µM | 7343.7 µM | 7630.4 µM | 7604.1 µM | Compound concentration: Ropivacaine (24 h): 7648.9 µM |
| CCCN1CCCC[C@H]1C(=O)Nc1c(C)cccc1C.CCCN1CCCC[C@H]1C(=O)Nc1c(C)cccc1C.Cc1ccc(C(=O)OC(C(=O)O)C(OC(=O)c2ccc(C)cc2)C(=O)O)cc1 (stereo not shown) [Preparation Example 6, bis(ropivacaine) di-p-toluoyl tartarate] | – | – | – | – | – | – | – | 13380.8 µM | 15017.3 µM | 18586.4 µM | 19990.1 µM | 19679 µM | 19617.2 µM | 22843.9 µM | 26058.5 µM | 29888.8 µM | 38657.6 µM | 41983.6 µM | 41011.1 µM | 40777.8 µM | Compound concentration: Ropivacaine (24 h): 47445.3 µM |
| CCCCN1CCCCC1C(=O)Nc1c(C)cccc1C.O=P1(O)Oc2ccc3ccccc3c2-c2c(ccc3ccccc23)O1 [Preparation Example 7, bupivacaine binaphthol phosphate] | 263 µM | 271.4 µM | 310.5 µM | 280.7 µM | 314.8 µM | 317.7 µM | 268.4 µM | – | – | – | – | – | – | – | – | – | – | – | – | – | Compound concentration: naphthol phosphate (5 min): 293.5 µM; Compound concentration: naphthol phosphate (15 min): 275.6 µM; Compound concentration: naphthol phosphate (30 min): 264.3 µM; Compound concentration: naphthol phosphate (1 h): 263.3 µM; Compound concentration: naphthol phosphate (2 h): 278.9 µM; Compound concentration: naphthol phosphate (6 h): 288.4 µM; Compound concentration: naphthol phosphate (24 h): 264.6 µM; stability of the suspension (ratio between acid radical and basic group) (simulated body fluid): stable; solubility (simulated body fluid): about 0.3 mM |
| CC1(C)C2CCC1(CS(=O)(=O)O)C(=O)C2.CCCCN1CCCCC1C(=O)Nc1c(C)cccc1C (stereo not shown) [Preparation Example 8, bupivacaine camphorsulfonate] | 47678.3 µM | 57125.4 µM | 68314.9 µM | 68195.8 µM | 68902.6 µM | 71253.9 µM | 66020 µM | – | – | – | – | – | – | – | – | – | – | – | – | – | – |
| CCCN1CCCC[C@H]1C(=O)Nc1c(C)cccc1C.O=C(O)c1cc2ccccc2c(Cc2c(O)c(C(=O)O)cc3ccccc23)c1O [Preparation Example 9, mono(ropivacaine) pamoate] | – | – | – | – | – | – | – | – | – | – | – | – | – | – | 347.9 µM | 602.6 µM | 887 µM | 1285.6 µM | 1660.8 µM | 1944 µM | Compound concentration: Pamoic acid (5 min): 345.9 µM; Compound concentration: Pamoic acid (15 min): 601.5 µM; Compound concentration: Pamoic acid (30 min): 880.3 µM; Compound concentration: Pamoic acid (1 h): 1280.8 µM; Compound concentration: Pamoic acid (2 h): 1668.4 µM; Compound concentration: Pamoic acid (6 h): 1953.9 µM; Compound concentration: Pamoic acid (24 h): 2052.3 µM; Compound concentration: Ropivacaine (24 h): 1972 µM; stability of the suspension (ratio between acid radical and basic group) (simulated body fluid): stable; solubility (simulated body fluid): about 2.0 mM |
